# Counter-ions that a name gives are not always drawn. Like-named read-outs stand apart in the source and are kept apart here.
# Key:
# [1] = system: Rats model of deep vein thrombosis; assay: Rat model of deep vein thrombosis (thrombus weight); assay type: in vivo, SD rats
# From the text: Experimental animals: SD rats (body weight 220 to 250 g, sex: male)
# The thrombus was removed and weighed.
# Solubility determination = assay type: physicochemical; details: for aqueous solubility: water, result in words
# [2] = Moisture adsorption / hygroscopicity (DVS); assay type: physicochemical
# [3] = Method: Experimental animals: SD rats (body weight 200 to 300 g, sex: half of male and half of female)
# The doses of 5, 10 and 20 mg/kg were administered by gavage, and blood was collected from the jugular vein at 5 min, 10 min, 20 min, 30 min, 1 h, 2 h, 4 h, 6 h, 8 h, 12 h and 24 h after the administration of the drug, processed, and analyzed for blood drug level by LC-MS/MS.
# Data were processed using Phoenix WinNonlin 6.4 non-compartmental model to calculate the pharmacokinetic parameters of rats after drug administration, including t1/2, AUC0-t, AUC0-∞, Cl/F or Clss/F or Cl, Vz/F or Vss, MRT, Cmax, C5min, Tmax, and Cmin, Cavg, and AUC0-τ for multiple administrations to reach steady state, etc.
# [4] = Accelerated stability test at 25 ± 2 °C, 60 ± 5% humidity; assay type: physicochemical
# Method: The accelerated stability test data of the Form I at T = 25 ± 2 °C, 60 ± 5% humidity are as follows: […]
# [5] = Blood drug level in the rat deep vein thrombosis model
# [6] = 0.1 mg/kg/h, intravenous infusion
compound,measurement,setting,value
CCCCCCOC(=O)NC(=N)c1ccc(CNC(=O)[C@@H]2CCCN2C(=O)[C@@H](CC(C)C)NCC(=O)OCC)cc1 [Form I],Thrombosis inhibition rate (%),"[1]; 2.5 mg/kg, oral gavage",27.0%
same,Thrombus weight,"[1]; 2.5 mg/kg, oral gavage",51.9 ± 8.3 mg
same,Thrombosis inhibition rate (%),"[1]; 5 mg/kg, oral gavage",54.7%
same,Thrombus weight,"[1]; 5 mg/kg, oral gavage",32.1 ± 5.7 mg
same,Thrombus weight,"[1]; 10 mg/kg, oral gavage",21.3 ± 5.1 mg
same,Thrombosis inhibition rate (%),"[1]; 20 mg/kg, oral gavage",79.7%
same,Thrombus weight,"[1]; 20 mg/kg, oral gavage",14.4 ± 3.6 mg
same,antithrombotic efficacy compared with dabigatran etexilate,[1]; at the same dose,basically equivalent
same,Solubility,Solubility determination; AC (Acetic acid),>250 mg/mL
same,Solubility,Solubility determination; ACN,>250 mg/mL
same,Solubility,Solubility determination; DMSO,>250 mg/mL
same,Solubility,Solubility determination; Diox,~125 mg/mL
same,Solubility,Solubility determination; EA,<0.3 mg/mL
same,Solubility,Solubility determination; EtOH,>250 mg/mL
same,Solubility,Solubility determination; Hept,<0.3 mg/mL
same,Solubility,Solubility determination; IPA,~167 mg/mL
same,Solubility,Solubility determination; MEK,~1.6 mg/mL
same,Solubility,Solubility determination; MTBE,<0.3 mg/mL
same,Solubility,Solubility determination; NBA,~167 mg/mL
same,Solubility,Solubility determination; THF,~11.1 mg/mL
same,Solubility,Solubility determination; Tol,<0.3 mg/mL
same,Solubility,Solubility determination; Water,>250 mg/mL
same,Solubility,Solubility determination; acetonitrile and dichloromethane,readily soluble
same,Solubility,Solubility determination; buffer solutions with different pH values (1.2 to 13.0),Highly soluble
same,Solubility,"Solubility determination; n-heptane and N, N-diisopropyl ethylamine",almost insoluble or insoluble
same,water absorption (DVS),[2]; 80% RH,28.8%
same,water absorption (DVS),[2]; 90% humidity,49.9%
same,solid form after DVS test,[2]; after DVS test,converted to amorphous form
same,behaviour of the sample at high humidity (DVS),[2]; high humidity,undergoes deliquescence
same,Hygroscopicity,[2]; result in words,Hygroscopic
same,AUC0-t (h·ng/mL),"[3]; gavage 5 mg/kg, Female",850+226 h·ng/mL
same,AUC0-∞,"[3]; gavage 5 mg/kg, Female",854 ± 224 ng·h/mL
same,Cl/F,"[3]; gavage 5 mg/kg, Female",6.24 ± 1.98 L/h/kg
same,Cmax,"[3]; gavage 5 mg/kg, Female",522 ± 170 ng/mL
same,MRT0-t,"[3]; gavage 5 mg/kg, Female",1.6 ± 0.34 h
same,MRT0-∞ (h),"[3]; gavage 5 mg/kg, Female",1.7+0.38 h
same,Tmax,"[3]; gavage 5 mg/kg, Female",35.4 ± 17.4 min
same,V2/F,"[3]; gavage 5 mg/kg, Female",13.9 ± 6.75 L/kg
same,t1/2,"[3]; gavage 5 mg/kg, Female",1.5 ± 0.26 h
same,AUC0-t,"[3]; gavage 5 mg/kg, Male",604 ± 182 ng·h/mL
same,AUC0-∞,"[3]; gavage 5 mg/kg, Male",606 ± 181 ng·h/mL
same,Cl/F,"[3]; gavage 5 mg/kg, Male",8.81 ± 2.50 L/h/kg
same,Cmax,"[3]; gavage 5 mg/kg, Male",344 ± 163 ng/mL
same,MRT0-t,"[3]; gavage 5 mg/kg, Male",1.6 ± 0.20 h
same,MRT0-∞,"[3]; gavage 5 mg/kg, Male",1.7 ± 0.21 h
same,Tmax,"[3]; gavage 5 mg/kg, Male",39.6 ± 13.8 min
same,V2/F,"[3]; gavage 5 mg/kg, Male",18.1 ± 6.08 L/kg
same,t1/2,"[3]; gavage 5 mg/kg, Male",1.4 ± 0.32 h
same,AUC0-t,"[3]; gavage 5 mg/kg, Total",727 ± 231 ng·h/mL
same,AUC0-∞,"[3]; gavage 5 mg/kg, Total",730 ± 231 ng·h/mL
same,Cl/F,"[3]; gavage 5 mg/kg, Total",7.53 ± 2.50 L/h/kg
same,Cmax,"[3]; gavage 5 mg/kg, Total",433 ± 181 ng/mL
same,MRT0-t,"[3]; gavage 5 mg/kg, Total",1.6 ± 0.26 h
same,MRT0-∞,"[3]; gavage 5 mg/kg, Total",1.7 ± 0.28 h
same,Tmax,"[3]; gavage 5 mg/kg, Total",37.2 ± 14.4 min
same,V2/F,"[3]; gavage 5 mg/kg, Total",16.0 ± 6.37 L/kg
same,t1/2,"[3]; gavage 5 mg/kg, Total",1.5 ± 0.27 h
same,AUC0-t,"[3]; gavage 10 mg/kg, Female",2060 ± 783 ng·h/mL
same,AUC0-∞,"[3]; gavage 10 mg/kg, Female",1830 ng·h/mL
same,Cl/F,"[3]; gavage 10 mg/kg, Female",5.54 L/h/kg
same,Cmax,"[3]; gavage 10 mg/kg, Female",1120 ± 385 ng/mL
same,MRT0-t,"[3]; gavage 10 mg/kg, Female",1.6 ± 0.27 h
same,MRT0-∞,"[3]; gavage 10 mg/kg, Female",1.6 h
same,Tmax,"[3]; gavage 10 mg/kg, Female",45 ± 17.4 min
same,V2/F,"[3]; gavage 10 mg/kg, Female",20.1 L/kg
same,t1/2,"[3]; gavage 10 mg/kg, Female",2.6 h
same,AUC0-t,"[3]; gavage 10 mg/kg, Male",1460 ± 324 ng·h/mL
same,AUC0-∞,"[3]; gavage 10 mg/kg, Male",1460 ± 324 ng·h/mL
same,Cl/F,"[3]; gavage 10 mg/kg, Male",7.1 ± 1.59 L/h/kg
same,Cmax,"[3]; gavage 10 mg/kg, Male",934 ± 299 ng/mL
same,MRT0-t,"[3]; gavage 10 mg/kg, Male",1.6 ± 0.24 h
same,MRT0-∞,"[3]; gavage 10 mg/kg, Male",1.7 ± 0.20 h
same,Tmax,"[3]; gavage 10 mg/kg, Male",37.8 ± 15 min
same,V2/F,"[3]; gavage 10 mg/kg, Male",46.9 ± 24.6 L/kg
same,t1/2,"[3]; gavage 10 mg/kg, Male",4.5 ± 1.8 h
same,AUC0-t,"[3]; gavage 10 mg/kg, Total",1760 ± 642 ng·h/mL
same,AUC0-∞,"[3]; gavage 10 mg/kg, Total",1590 ± 346 ng·h/mL
same,Cl/F,"[3]; gavage 10 mg/kg, Total",6.58 ± 1.53 L/h/kg
same,Cmax,"[3]; gavage 10 mg/kg, Total",1030 ± 335 ng/mL
same,MRT0-t,"[3]; gavage 10 mg/kg, Total",1.6 ± 0.24 h
same,MRT0-∞,"[3]; gavage 10 mg/kg, Total",1.7 ± 0.26 h
same,Tmax,"[3]; gavage 10 mg/kg, Total",41.4 ± 15.6 min
same,V2/F,"[3]; gavage 10 mg/kg, Total",38.0 ± 23.6 L/kg
same,t1/2,"[3]; gavage 10 mg/kg, Total",3.9 ± 1.8 h
same,AUC0-t,"[3]; gavage 20 mg/kg, Female",3840 ± 446 ng·h/mL
same,AUC0-∞ (h·ng/mL),"[3]; gavage 20 mg/kg, Female",3850+446 h·ng/mL
same,Cl/F,"[3]; gavage 20 mg/kg, Female",5.25 ± 0.610 L/h/kg
same,Cmax,"[3]; gavage 20 mg/kg, Female",2170 ± 380 ng/mL
same,MRT0-t (h),"[3]; gavage 20 mg/kg, Female",1.7+0.19 h
same,MRT0-∞,"[3]; gavage 20 mg/kg, Female",1.8 ± 0.18 h
same,Tmax,"[3]; gavage 20 mg/kg, Female",30 ± 0 min
same,V2/F,"[3]; gavage 20 mg/kg, Female",30.8 ± 5.67 L/kg
same,t1/2,"[3]; gavage 20 mg/kg, Female",4.0 ± 0.35 h
same,AUC0-t (h·ng/mL),"[3]; gavage 20 mg/kg, Male",4650+2440 h·ng/mL
same,AUC0-∞,"[3]; gavage 20 mg/kg, Male",4660 ± 2440 ng·h/mL
same,Cl/F,"[3]; gavage 20 mg/kg, Male",4.98 ± 1.79 L/h/kg
same,Cmax,"[3]; gavage 20 mg/kg, Male",2230 ± 531 ng/mL
same,MRT0-t,"[3]; gavage 20 mg/kg, Male",1.8 ± 0.33 h
same,MRT0-∞,"[3]; gavage 20 mg/kg, Male",1.8 ± 0.32 h
same,Tmax,"[3]; gavage 20 mg/kg, Male",52.8 ± 15 min
same,V2/F,"[3]; gavage 20 mg/kg, Male",26.6 ± 17.0 L/kg
same,t1/2,"[3]; gavage 20 mg/kg, Male",3.7 ± 1.7 h
same,AUC0-t,"[3]; gavage 20 mg/kg, Total",4250 ± 1680 ng·h/mL
same,AUC0-∞,"[3]; gavage 20 mg/kg, Total",4250 ± 1680 ng·h/mL
same,Cl/F,"[3]; gavage 20 mg/kg, Total",5.12 ± 1.25 L/h/kg
same,Cmax,"[3]; gavage 20 mg/kg, Total",2200 ± 429 ng/mL
same,MRT0-t,"[3]; gavage 20 mg/kg, Total",1.8 ± 0.25 h
same,MRT0-∞,"[3]; gavage 20 mg/kg, Total",1.8 ± 0.25 h
same,Tmax,"[3]; gavage 20 mg/kg, Total",41.4 ± 15.6 min
same,V2/F,"[3]; gavage 20 mg/kg, Total",28.7 ± 11.9 L/kg
same,t1/2,"[3]; gavage 20 mg/kg, Total",3.9 ± 1.2 h
same,Content (HPLC),[4]; 0 month,99.6%
same,Hydrolyzed impurities,[4]; 0 month,0.19%
same,Moisture,[4]; 0 month,0.4%
same,Other individual impurities,[4]; 0 month,<RL(0.05%)
same,Total impurities,[4]; 0 month,0.42%
same,Content (HPLC),[4]; 1 month,99.3%
same,Hydrolyzed impurities,[4]; 1 month,0.27%
same,Moisture,[4]; 1 month,0.5%
same,Other individual impurities,[4]; 1 month,<RL(0.05%)
same,Total impurities,[4]; 1 month,0.54%
same,Content (HPLC),[4]; 2 months,100.3%
same,Hydrolyzed impurities,[4]; 2 months,0.28%
same,Moisture,[4]; 2 months,0.3%
same,Other individual impurities,[4]; 2 months,<RL(0.05%)
same,Total impurities,[4]; 2 months,0.56%
same,Content (HPLC),[4]; 3 months,100.3%
same,Hydrolyzed impurities,[4]; 3 months,0.45%
same,Moisture,[4]; 3 months,0.4%
same,Other individual impurities,[4]; 3 months,<RL(0.05%)
same,Total impurities,[4]; 3 months,0.72%
same,Content (HPLC),[4]; 6 months,99.6%
same,Hydrolyzed impurities,[4]; 6 months,0.51%
same,Moisture,[4]; 6 months,0.3%
same,Other individual impurities,[4]; 6 months,<RL(0.05%)
same,Total impurities,[4]; 6 months,1.02%
same,Blood drug level,"[5]; level of compound V after oral 2.5 mg/kg Form I, 2.5 mg/kg",190.1 ng/mL
same,Blood drug level,"[5]; level of compound V after oral 2.5 mg/kg Form I, listed as Crystal form I, 2.5 mg/kg",190.1 ± 62.9 ng/mL
same,Blood drug level,"[5]; level of compound V after oral 5 mg/kg Form I, 5 mg/kg",181.3 ng/mL
same,Blood drug level,"[5]; level of compound V after oral 10 mg/kg Form I, 10 mg/kg",341.9 ng/mL
same,Blood drug level,"[5]; level of compound V after oral 10 mg/kg Form I, listed as Crystal form I, 10 mg/kg",341.9 ± 46.4 ng/mL
same,Blood drug level,"[5]; level of compound V after oral 20 mg/kg Form I, 20 mg/kg",609.7 ng/mL
same,Blood drug level,"[5]; level of compound V after oral 20 mg/kg Form I, listed as Crystal form I, 20 mg/kg",609.7 ± 174.0 ng/mL
CCCCCCOC(=O)NC(=N)c1ccc(CNC(=O)[C@@H]2CCCN2C(=O)[C@@H](CC(C)C)NCC(=O)OCC)cc1,aqueous solubility,Solubility determination,insoluble in water
CC(C)C[C@@H](NCC(=O)O)C(=O)N1CCC[C@H]1C(=O)NCc1ccc(C(=N)N)cc1 [Compound V],Thrombosis inhibition rate (%),[1]; [6],48.2%
same,Thrombus weight,[1]; [6],36.8 ± 6.6 mg
same,antithrombotic effect compared with oral administration of 5 mg/kg Form I,[1]; intravenous infusion of 0.1 mg/kg/h in rats,comparable
same,Blood drug level,[5]; intravenous infusion of 0.1 mg/kg/h compound V,174.2 ± 51.8 ng/mL
"CCCCCCOC(=O)N=C(N)c1ccc(NCc2nc3cc(C(=O)N(CCC(=O)OCC)c4ccccn4)ccc3n2C)cc1 [Dabigatran etexilate, reference compound]",Thrombosis inhibition rate (%),"[1]; 5 mg/kg, oral gavage",69.9%
same,Thrombus weight,"[1]; 5 mg/kg, oral gavage",21.4 ± 8.2 mg
CCCCCCOC(=O)NC(=N)c1ccc(CNC(=O)[C@@H]2CCCN2C(=O)[C@@H](CC(C)C)NCC(=O)OCC)cc1 [dihydrochloride],aqueous solubility,Solubility determination,excellent aqueous solubility
